According to BigSolDB 2.1:

Settings: in n-octanol

Question: Which solubility (mole fraction) (300.15 K) does the source give for O=C(O)c1ccccc1 here?
Answer: 0.192

Question: With Cc1ccccc1C(=O)O as the molecule, how does the solubility (mole fraction) (297.15 K) read?
Answer: 0.155

Question: And the solubility (mole fraction) (299.65 K)?
Answer: 0.165

Question: What about the solubility (mole fraction) (301.15 K) of the same molecule?
Answer: 0.18

Question: What about the solubility (mole fraction) (302.65 K) of the same molecule?
Answer: 0.19

Question: And the solubility (mole fraction) (304.75 K)?
Answer: 0.196

Question: And the solubility (mole fraction) (305.35 K)?
Answer: 0.197

Question: And the solubility (mole fraction) (306.25 K)?
Answer: 0.2

Question: And the solubility (mole fraction) (306.95 K)?
Answer: 0.208

Question: And the solubility (mole fraction) (308.95 K)?
Answer: 0.219

Question: And the solubility (mole fraction) (310.65 K)?
Answer: 0.23

Question: What about the solubility (mole fraction) (312.25 K) of the same molecule?
Answer: 0.239

Question: What about the solubility (mole fraction) (314.05 K) of the same molecule?
Answer: 0.25

Question: And the solubility (mole fraction) (315.75 K)?
Answer: 0.26

Question: And the solubility (mole fraction) (316.95 K)?
Answer: 0.271

Question: What about the solubility (mole fraction) (318.75 K) of the same molecule?
Answer: 0.281

Question: What about the solubility (mole fraction) (320.35 K) of the same molecule?
Answer: 0.294

Question: And the solubility (mole fraction) (321.55 K)?
Answer: 0.305

Question: For O=C(O)c1ccc(O)cc1, which solubility (mole fraction) (297.65 K) is on record?
Answer: 0.105

Question: And the solubility (mole fraction) (299.95 K)?
Answer: 0.107

Question: And the solubility (mole fraction) (301.45 K)?
Answer: 0.109

Question: And the solubility (mole fraction) (302.85 K)?
Answer: 0.11

Question: What about the solubility (mole fraction) (304.25 K) of the same molecule?
Answer: 0.112

Question: What about the solubility (mole fraction) (305.85 K) of the same molecule?
Answer: 0.113

Question: What about the solubility (mole fraction) (306.95 K) of the same molecule?
Answer: 0.115

Question: And the solubility (mole fraction) (308.15 K)?
Answer: 0.116

Question: What about the solubility (mole fraction) (309.85 K) of the same molecule?
Answer: 0.117

Question: And the solubility (mole fraction) (311.25 K)?
Answer: 0.119

Question: And the solubility (mole fraction) (313.15 K)?
Answer: 0.121

Question: What about the solubility (mole fraction) (315.45 K) of the same molecule?
Answer: 0.122

Question: What about the solubility (mole fraction) (317.25 K) of the same molecule?
Answer: 0.124

Question: What about the solubility (mole fraction) (318.65 K) of the same molecule?
Answer: 0.126

Question: What about the solubility (mole fraction) (320.55 K) of the same molecule?
Answer: 0.128

Question: What about the solubility (mole fraction) (322.25 K) of the same molecule?
Answer: 0.13

Question: For Cc1ccc(C(=O)O)cc1, which solubility (mole fraction) (297.35 K) is on record?
Answer: 0.0595

Question: What about the solubility (mole fraction) (298.05 K) of the same molecule?
Answer: 0.0608

Question: What about the solubility (mole fraction) (298.95 K) of the same molecule?
Answer: 0.0618

Question: And the solubility (mole fraction) (301.65 K)?
Answer: 0.0663

Question: What about the solubility (mole fraction) (307.25 K) of the same molecule?
Answer: 0.0767

Question: What about the solubility (mole fraction) (308.65 K) of the same molecule?
Answer: 0.0789

Question: What about the solubility (mole fraction) (309.65 K) of the same molecule?
Answer: 0.0816

Question: What about the solubility (mole fraction) (312.95 K) of the same molecule?
Answer: 0.0871

Question: What about the solubility (mole fraction) (314.35 K) of the same molecule?
Answer: 0.0896

Question: And the solubility (mole fraction) (315.8 K)?
Answer: 0.0925

Question: And the solubility (mole fraction) (317.65 K)?
Answer: 0.0962

Question: What about the solubility (mole fraction) (319.65 K) of the same molecule?
Answer: 0.0997

Question: And the solubility (mole fraction) (320.4 K)?
Answer: 0.101

Question: What about the solubility (mole fraction) (321.55 K) of the same molecule?
Answer: 0.103

Question: What about the solubility (mole fraction) (322.15 K) of the same molecule?
Answer: 0.104

Question: Which results are given for O=C(O)c1ccccc1[N+](=O)[O-]?
Answer: solubility (mole fraction) (297.15 K): 0.0761; solubility (mole fraction) (299.65 K): 0.0806; solubility (mole fraction) (300.15 K): 0.084; solubility (mole fraction) (302.05 K): 0.0895; solubility (mole fraction) (303.15 K): 0.0928; solubility (mole fraction) (306.15 K): 0.101; solubility (mole fraction) (307.15 K): 0.104; solubility (mole fraction) (308.35 K): 0.108; solubility (mole fraction) (309.25 K): 0.113; solubility (mole fraction) (310.15 K): 0.117; solubility (mole fraction) (311.75 K): 0.122; solubility (mole fraction) (313.15 K): 0.129; solubility (mole fraction) (314.85 K): 0.135; solubility (mole fraction) (317.15 K): 0.141; solubility (mole fraction) (318.65 K): 0.147; solubility (mole fraction) (319.85 K): 0.154; solubility (mole fraction) (321.15 K): 0.161
